Entries after “also recorded” stand apart in the source; their conditions may differ. Where two headings read alike, the source gives them in different places.
Experiments:
[1] = target: T1, CRBN (Homo sapiens, UniProt Q96SW2); assay: Western blot for expression of CRBN relative to vinculin in human T cells (CRBN degradation); type: cell-based; conditions: for remaining activity at 10 µM / remaining activity at 0.01 µM: read-out: Relative Density of CRBN (% of DMSO); for remaining activity at 0.01 µM: 24 h, 10nM
T1 construct: endogenous in cells; host or cells: primary human T cells / CD8+ T cells from peripheral blood
T1 sequence (Q96SW2 whole entry): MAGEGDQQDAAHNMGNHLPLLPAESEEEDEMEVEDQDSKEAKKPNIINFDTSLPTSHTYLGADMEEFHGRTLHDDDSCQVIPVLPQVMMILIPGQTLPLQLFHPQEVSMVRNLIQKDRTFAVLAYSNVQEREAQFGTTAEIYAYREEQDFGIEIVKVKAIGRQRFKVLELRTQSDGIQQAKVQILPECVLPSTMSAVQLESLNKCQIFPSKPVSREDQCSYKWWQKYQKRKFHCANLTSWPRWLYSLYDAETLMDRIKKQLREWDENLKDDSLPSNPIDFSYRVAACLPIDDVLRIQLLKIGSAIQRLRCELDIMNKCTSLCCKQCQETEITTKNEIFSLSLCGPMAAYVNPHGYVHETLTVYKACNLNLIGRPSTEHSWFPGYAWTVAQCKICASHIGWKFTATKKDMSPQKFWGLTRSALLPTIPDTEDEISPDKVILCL
Source text: Bortez=bortezomib; MG132=proteasome inhibitor; MLN4924=NEDD8 inhibitor.
This assay is a standard Western blot assay for expression of CRBN relative to vinculin.
[…] 0.1 percent DMSO was used as a vehicle control.

[2] = target: T2, Ikaros (Homo sapiens, UniProt Q13422); assay: Ikaros degradation in isolated human CD8+ T cells; type: cell-based; conditions: increasing doses
T2 construct: This molecule has a DC50 for Ikaros at 10 μM and for CRBN at <1 μM; endogenous in cells; host or cells: isolated human CD8+ T cells
T2 sequence (Q13422 whole entry): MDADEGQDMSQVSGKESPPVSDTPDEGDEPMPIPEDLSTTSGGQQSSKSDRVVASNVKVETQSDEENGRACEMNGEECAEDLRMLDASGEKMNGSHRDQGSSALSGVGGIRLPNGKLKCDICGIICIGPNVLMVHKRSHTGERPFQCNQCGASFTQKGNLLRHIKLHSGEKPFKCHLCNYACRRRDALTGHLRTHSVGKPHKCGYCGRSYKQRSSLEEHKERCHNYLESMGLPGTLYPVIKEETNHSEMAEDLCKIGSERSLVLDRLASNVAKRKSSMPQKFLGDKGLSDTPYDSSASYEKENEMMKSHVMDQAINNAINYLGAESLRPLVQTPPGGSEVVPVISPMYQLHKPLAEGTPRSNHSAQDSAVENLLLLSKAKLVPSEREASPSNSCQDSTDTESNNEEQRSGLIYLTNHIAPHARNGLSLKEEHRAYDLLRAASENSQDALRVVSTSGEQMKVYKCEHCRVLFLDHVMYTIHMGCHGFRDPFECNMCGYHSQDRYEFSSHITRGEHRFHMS
Method: Isolated human CD8+ T cells were treated with increasing doses of EC1-168. This molecule has a DC50 for Ikaros at 10 μM and for CRBN at <1 μM. Unique functional properties may be afforded to the CDM compounds via distinct protein recruitment.
Isolated human CD8+ T cells were treated with increasing doses of EC2-134. This molecule has a DC50 for Ikaros at 10 nM and for CRBN at 100 μM. Unique functional properties may be afforded to the CDM compounds via distinct protein recruitment.

[3] = tested on: CD25 (IL-2 receptor alpha); assay: Expression of activation marker CD25 on activated human T cells; type: cell-based; conditions: 10 nM
Source text: FIG. 23 is a graph showing human T cells activated with a series of immunomodulatory drugs lead to higher levels of expression of the activation marker CD25 (IL-2 receptor alpha) compared to unstimulated cells and control activated cells.

[4] = target: T3, cereblon (Mus musculus, UniProt Q8C7D2); assay: Western blot of cereblon in splenic T cells / splenocytes of mice treated orally with a single dose; type: in vivo; conditions: for cereblon levels in purified splenic T cells: single oral dose of 75 mg/kg
T3 construct: from tissue; host or cells: spleen: purified splenic T cells and total splenocytes of treated mice
T3 sequence (Q8C7D2 1-445): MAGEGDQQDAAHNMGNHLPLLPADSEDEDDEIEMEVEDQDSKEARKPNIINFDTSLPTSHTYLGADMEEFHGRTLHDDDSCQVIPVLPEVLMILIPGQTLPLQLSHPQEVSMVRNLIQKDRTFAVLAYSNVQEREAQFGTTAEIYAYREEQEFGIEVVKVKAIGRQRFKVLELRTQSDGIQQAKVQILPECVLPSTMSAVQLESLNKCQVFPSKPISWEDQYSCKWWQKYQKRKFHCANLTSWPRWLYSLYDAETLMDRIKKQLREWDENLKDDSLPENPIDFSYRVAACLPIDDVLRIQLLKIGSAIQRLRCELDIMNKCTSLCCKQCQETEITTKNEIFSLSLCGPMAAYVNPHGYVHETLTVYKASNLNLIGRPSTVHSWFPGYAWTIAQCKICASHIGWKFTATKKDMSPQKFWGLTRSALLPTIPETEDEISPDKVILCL
Method: FIG. 24 is a graph of results from Western blots from purified splenic T cells of mice treated orally with a single dose of 75 mg/kg SM2-145. Three mice were obtained from each time point (1, 6, 12, and 24 hrs) after treatment.
FIG. 25 contains a Western blot analysis of purified T cells from mice treated orally with a single dose of 75 mg/kg EC2-035 and EC2-134.

[5] = target: T4, cereblon (CRBN) (Homo sapiens, UniProt Q96SW2); assay: Kd and % inhibition from FI; type: binding
T4 sequence (Q96SW2 whole entry, species assumed): as the sequence (Q96SW2 whole entry) above

[6] = target: T4, cereblon (CRBN); assay: Kd from ITC; type: binding
[7] = target: T5, cereblon (CRBN) (Mus musculus, UniProt Q8C7D2); assay: Western blot of cereblon (CRBN) levels in mouse CD8+ T cells; type: cell-based; conditions: 24 hours of treatment
T5 construct: endogenous in cells; host or cells: mouse CD8+ T cells
T5 sequence (Q8C7D2 1-445): T3 sequence (Q8C7D2 1-445)

[8] = Pharmacokinetic studies; conditions: in vivo
[9] = tested on: T cells expanded from patients with melanoma; assay: Cytokine assays (IL-2, IFN-γ) in T cells expanded from patients with melanoma; type: cell-based, human
Source text: Veh=vehicle-treated cells DMSO 0.1%

[10] = tested on: IL-2; assay: IL-2 mRNA and protein secretion in anti-CD3 stimulated human T cells; type: cell-based; conditions: anti-CD3 stimulation without CD28 co-stimulation, relative to DMSO
Method: (§1) IL-2 mRNA (FIG. 8A) and protein secretion (FIG. 8B) were measured in cells and culture supernatant, respectively. […] Cytokine levels were determined by ELISA. […] Results are representative of three independent experiments. […] Statistical analysis was conducted ANOVA, followed by Dunnett's multiple comparison test. *=p<0.05, ***=p<0.001 FIGS. 9A-9C show the structure of cereblon is concerved across different species. […] FIG. 9C is an overlay of human and mouse cereblon (Val380 and Ile391 for mCRBN; Glu377 and Val388 for hCRBN), are demarcated as thin tubes.
Cereblon acts as the E3 ubiquitin ligase (UbL) substrate receptor component of the DNA damage binding protein 1 (DDB1), cullin-4 (CUL4A and B), and ROC1 complex ([…]). […] Blood Cancer J 5, e354, 2015). […] […]. […] Br. J. Haematol. […] Leukemia 26:1425-1429, 2012), which is the hallmark of the immunomodulatory drug class.

[11] = tested on: IL-2; assay: IL-2 production in mouse T cells; type: cell-based; conditions: absence of CD28 co-stimulation
Method: as §1

[12] = tested on: IKZF1; assay: Western blot of IKZF1 (Ikaros) in T cells and multiple myeloma cells; type: cell-based
[13] = target: T6, BRD4 (Mus musculus, UniProt Q9ESU6); assay: Western blot of BRD4 in activated mouse T cells; type: cell-based
T6 construct: endogenous in cells
Source text: On the right is a schematic diagram of CRBN/DDB1/CUL4A and ubiquitin degrading function. […] DMSO was used in these experiments as a vehicle control. […] CRBN is shown for human T cells and vinculin loading control of human and mouse T cells are provided. […] Results shown are representative of three independent experiments.

[14] = isolated human CD8+ T cells, increasing doses, read-out: DC50 for CRBN
[15] = single oral dose of 12.5, 25, and 75 mg/kg

## CS(=O)(=O)O.O=C1CC[C@H](N2Cc3c(OCc4ccc(CN5CCN(Cc6ccc(COc7cccc8c7CN([C@H]7CCC(=O)NC7=O)C8=O)cc6)CC5)cc4)cccc3C2=O)C(=O)N1 [EC1-168, (4-(4-(((2-((S)-2,6-dioxopiperidin-3-yl)-1-oxoisoindolin-4-yl)oxy)methyl)benzyl)-114-piperazin-1-yl)(4-(((2-((S)-2,6-dioxopiperidin-3-yl)-1-oxoisoindolin-4-yl)oxy)methyl)phenyl)methylium methyl sulfonate]
[1]; [14]
  DC50: < 1 µM
[2]
  DC50: 10 µM
[3]
  expression of the activation marker CD25: induces more immune potentiation

## O=C1CCC(N2C(=O)c3cccc(NCc4ccc(CNc5cccc6c5C(=O)N(C5CCC(=O)NC5=O)C6=O)cc4)c3C2=O)C(=O)N1 (centres unmarked) [EC2-134]
[1]
  remaining activity at 10 µM: 13.8%
[1]; human T cells, 24 hours
  remaining activity at 0.01 µM: 4%
[1]; [14]
  DC50: 100 µM
[2]
  DC50: 0.01 µM
[4]
  cereblon levels in purified splenic T cells: sustained reduction in cereblon levels at 6, 9 and 12 hours
[4]; [15]
  cereblon levels in purified T cells: inverse dose dependent levels of cereblon
  cereblon levels in total splenocytes: inverse dose dependent levels of cereblon
[4]; single oral dose, lowest dose (12.5 mg/kg), compared with Crbn-/- T cells
  cereblon levels in purified T cells at the lowest dose: significantly reduced

## O=C1CCC(N2Cc3c(CCCOCCOCCCc4cccc5c4CN(C4CCC(=O)NC4=O)C5=O)cccc3C2=O)C(=O)N1 (centres unmarked) [SM2-145, 3,3′-(((Ethane-1,2-diylbis(oxy))bis(propane-3,1-diyl))bis(1-oxoisoindoline-4,2-diyl))bis(piperidine-2,6-dione)]
[1]
  remaining activity at 10 µM: 7.21%
[1]; human T cells, 24 hours
  remaining activity at 0.01 µM: 21%
  specificity for CRBN degradation over Ikaros: Specificity is shown for CRBN degradation over Ikaros
[1]; human T cells, 24 hours of treatment
  intracellular cereblon levels (Western blot): reduced intracellular cereblon levels
[1]; human T cells, 24 hours, read-out: DC50 (concentration leading to 50% degradation of cereblon)
  DC50: 0.00288 µM
[5]; FI, read-out: Kd (FI) (converted)
  Kd: 6.59 ± 1.57 µM
[5]; read-out: % inhibition @ 200 uM from *FI
  inhibition at 200 µM: 70.19 ± 0.28%
[6]
  Kd: 6.6 ± 0.8 µM
[7]
  cereblon (CRBN) levels (Western blot): reduced cereblon (CRBN) levels
[4]
  cereblon levels in purified splenic T cells: partial reduction in cereblon levels at 6 hours
[8]
  stability in pharmacokinetic studies: Poor stability
[9]
  T cell function (IL-2 and IFN-γ after anti-CD3 (OKT3) activation): actively increasing T cell function

## Nc1cccc2c1CN(C1CCC(=O)NC1=O)C2=O (centres unmarked) [lenalidomide, Lenalidomide]
[7]
  cereblon (CRBN) levels (Western blot): not
[10]
  IL-2 production (mRNA and protein secretion): significantly increased; also recorded: augments IL-2 production
[11]
  IL-2 production: not

## Nc1cccc2c1C(=O)N(C1CCC(=O)NC1=O)C2=O (centres unmarked) [pomolidomide]
[12]
  IKZF1 expression: decreased
[13]; mouse T cells activated with anti-CD3ε/anti-CD28
  BRD4 expression / degradation: failed to reduce BRD4 expression
[13]; mouse T cells, Pom 0.5 μM with dBET1
  effect on dBET1-induced BRD4 degradation: reversed the degradation observed through dBET1

From patent US20250288573A1 (H. LEE MOFFITT CANCER CENTER AND RESEARCH INSTITUTE, INC., priority 2018, published 2025)
